Measured values: BindingDB's records for doi:10.1016/j.ejmech.2019.07.019 (Isf College of Pharmacy, 2019)

Tests used:
[1] = Inhibition of HIV1 3B Y181C mutant infected in human MT2 cells assessed as reduction in virus-induced cytopathogenicity after 3 days by BrightGlo luciferase reporter gene assay
[2] = Inhibition of HIV1 reverse transcriptase Y181C/K103N double mutant infected in human MT4 cells assessed as reduction in virus-induced cytopathogenicity

SMILES	IC50 [1] [µM]	IC50 [2] [µM]
CCCCC(O)(c1c(NC(=O)OCC)[nH]c2ccc(Br)cc12)C(F)(F)F (configuration not stated)	1.93	–
COP(=O)(c1cc(C)cc(/C=C/C#N)c1)c1c(C(N)=O)[nH]c2ccc(Cl)cc12 (configuration not stated) [IDX899]	–	11
